Like-named read-outs stand apart in the source and are kept apart here.
Legend:
Assay type in all cases: biochemical
[1] = biological target: acetylcholinesterase (AChE) (Homo sapiens, UniProt P22303); assay: Acetylcholinesterase inhibition assay; details: for inhibition at 500 µM: read-out: Acetylcholinestrase (AChE) inhibition (%) at 0.5 mM
Method: The AChE inhibition activity was performed according to the reported method ([14]) with slight modifications. Total volume of the reaction mixture was 100 μL. It contained 60 μL Na2HPO4 buffer with concentration of 50 mM and pH 7.7. Ten μL test compound (0.5 mM well^-1) was added, followed by the addition of 10 μL (0.005 unit well^-1) enzyme. The contents were mixed and pre-read at 405 nm. Then contents were pre-incubated for 10 min at 37 °C. The reaction was initiated by the addition of 10 μL of 0.5 mM well^-1 substrate (acetylthiocholine iodide), followed by the addition of 10 μL DTNB (0.5 mM well^-1). After 15 min of incubation at 37 °C, absorbance was measured at 405 nm. Synergy HT (BioTek, USA) 96-well plate reader was used in all experiments. All experiments were carried out with their respective controls in triplicate. […] The percent inhibition was calculated by the help of following equation )[19] (.
(§1) Inhibition %=Control-Test/Control×100
(§2) IC50 values (concentration at which there is 50% enzyme inhibition) of compounds were calculated using EZ-Fit Enzyme kinetics software (Perella Scientific Inc. Amherst, USA).

[2] = biological target: butyrylcholinesterase (BChE) (Homo sapiens, UniProt P06276); assay: Butyrylcholinesterase inhibition assay; details: for inhibition at 500 µM: read-out: Butyrylcholinesterase (BChE) inhibition (%) at 0.5 mM
Method: The BChE inhibition activity was performed according to the reported method ([14],[17]) with slight modifications. Total volume of the reaction mixture was 100 μL containing 60 μL, Na2HPO4 buffer, 50 mM and pH 7.7. Ten μL test compound 0.5 mM well^-1, followed by the addition of 10 μL (0. 5 unit well^-1) BChE. The contents were mixed and pre-read at 405 nm. Then contents were pre-incubated for 10 min at 37 °C. The reaction was initiated by the addition of 10 μL of 0.5 mM well^-1 substrate (butyrylthiocholine bromide), followed by the addition of 10 μL DTNB (0.5 mM well^-1). After 15 min of incubation at 37 °C, absorbance was measured at 405 nm. Synergy HT (BioTek, USA) 96-well plate reader was used in all experiments. All experiments were carried out with their respective controls in triplicate. […] The percent inhibition was calculated by the help of following equation.
as §1, §2

lipoxygenase (LOX) = biological target: T1, lipoxygenase (LOX) (Glycine max, UniProt P08170); assay: Lipoxygenase inhibition assay; details: n = 3, mean ± sem; for inhibition at 500 µM: 0.5 mM
T1 sequence (P08170 1-839): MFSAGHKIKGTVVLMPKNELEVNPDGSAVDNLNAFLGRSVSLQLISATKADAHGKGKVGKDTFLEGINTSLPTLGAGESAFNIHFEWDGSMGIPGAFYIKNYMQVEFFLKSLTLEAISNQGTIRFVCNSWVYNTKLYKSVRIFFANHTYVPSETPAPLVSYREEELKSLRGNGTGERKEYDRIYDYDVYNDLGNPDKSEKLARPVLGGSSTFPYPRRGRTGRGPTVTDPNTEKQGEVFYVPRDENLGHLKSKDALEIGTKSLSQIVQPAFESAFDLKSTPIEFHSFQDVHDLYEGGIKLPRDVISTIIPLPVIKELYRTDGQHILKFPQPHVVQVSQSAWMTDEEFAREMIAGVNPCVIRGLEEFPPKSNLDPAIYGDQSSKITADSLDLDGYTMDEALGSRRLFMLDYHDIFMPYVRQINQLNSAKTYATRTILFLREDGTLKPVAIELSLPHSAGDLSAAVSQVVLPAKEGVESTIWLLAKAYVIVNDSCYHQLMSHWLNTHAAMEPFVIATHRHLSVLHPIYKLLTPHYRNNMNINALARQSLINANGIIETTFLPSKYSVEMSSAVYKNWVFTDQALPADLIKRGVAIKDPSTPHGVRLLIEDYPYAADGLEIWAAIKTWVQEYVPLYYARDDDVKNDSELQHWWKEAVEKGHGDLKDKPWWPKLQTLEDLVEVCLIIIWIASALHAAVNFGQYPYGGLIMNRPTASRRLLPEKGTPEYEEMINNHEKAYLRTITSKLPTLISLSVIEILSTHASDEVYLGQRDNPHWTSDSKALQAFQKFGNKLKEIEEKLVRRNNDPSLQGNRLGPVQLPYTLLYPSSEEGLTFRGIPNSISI
Method: Lipoxygenase activity was assayed according to the reported method ([18]-[20]) but with slight modifications. A total volume of 200 μL assay mixture contained 150 μL sodium phosphate buffer (100 mM, pH 8.0), 10 μL test compound and 15 μL purified lipoxygenase enzyme (Sigma, USA). The contents were mixed and pre-read at 234 nm and pre-incubated for 10 min at 25 °C. The reaction was initiated by the addition of 25 μL substrate solution. The change in absorbance was observed after 6 min at 234 nm. Synergy HT (BioTek, USA) 96-well plate reader was used in all experiments. All reactions were performed in triplicates. The positive and negative controls were included in the assay. Baicalein (0.5 mM well^-1) was used as a positive control. The percentage inhibition was calculated by formula as follows.

[3] = n = 3, mean ± sem, read-out: Acetylcholinestrase (AChE) (IC50)
[4] = n = 3, mean ± sem, read-out: Butyrylcholinesterase (BChE) (IC50)

acetylcholinesterase (AChE), sequence (P22303 32-614): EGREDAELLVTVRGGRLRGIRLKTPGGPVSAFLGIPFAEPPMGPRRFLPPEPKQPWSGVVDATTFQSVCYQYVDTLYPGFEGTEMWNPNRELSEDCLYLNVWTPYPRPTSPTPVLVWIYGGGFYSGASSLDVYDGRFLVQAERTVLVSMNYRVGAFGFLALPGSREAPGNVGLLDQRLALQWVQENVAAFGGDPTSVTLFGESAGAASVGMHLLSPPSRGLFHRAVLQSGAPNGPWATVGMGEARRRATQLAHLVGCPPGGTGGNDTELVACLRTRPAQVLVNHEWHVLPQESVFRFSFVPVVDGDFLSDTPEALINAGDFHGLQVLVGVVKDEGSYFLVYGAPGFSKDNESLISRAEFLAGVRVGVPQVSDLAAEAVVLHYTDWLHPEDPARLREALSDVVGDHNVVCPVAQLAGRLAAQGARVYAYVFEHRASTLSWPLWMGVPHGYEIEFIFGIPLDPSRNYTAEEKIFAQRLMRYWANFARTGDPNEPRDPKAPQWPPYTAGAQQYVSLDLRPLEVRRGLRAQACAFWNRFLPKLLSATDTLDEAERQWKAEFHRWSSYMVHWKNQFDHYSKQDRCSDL
butyrylcholinesterase (BChE), sequence (P06276 29-602): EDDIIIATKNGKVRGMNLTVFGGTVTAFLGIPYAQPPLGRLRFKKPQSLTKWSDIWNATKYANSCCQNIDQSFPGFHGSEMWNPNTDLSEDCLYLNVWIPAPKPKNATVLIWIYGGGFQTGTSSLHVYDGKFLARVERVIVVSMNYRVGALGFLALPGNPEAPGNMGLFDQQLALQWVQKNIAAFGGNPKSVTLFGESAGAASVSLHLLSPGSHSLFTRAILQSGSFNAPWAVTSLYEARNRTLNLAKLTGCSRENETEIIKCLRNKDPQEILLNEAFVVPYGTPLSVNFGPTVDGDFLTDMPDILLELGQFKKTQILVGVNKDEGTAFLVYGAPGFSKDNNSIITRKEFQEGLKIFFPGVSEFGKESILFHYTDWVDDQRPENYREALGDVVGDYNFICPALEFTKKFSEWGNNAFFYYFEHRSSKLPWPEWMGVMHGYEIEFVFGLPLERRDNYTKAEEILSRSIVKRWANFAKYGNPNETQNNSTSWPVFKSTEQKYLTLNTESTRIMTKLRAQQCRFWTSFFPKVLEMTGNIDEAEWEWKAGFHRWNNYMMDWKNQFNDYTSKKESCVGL

Compound	inhibition at 500 µM ([1]; 0.5 mM, n = 3, mean ± sem) [%]	IC50 [1, 3] [µM]	inhibition at 500 µM ([2]; 0.5 mM, n = 3, mean ± sem) [%]	IC50 [2, 4] [µM]	inhibition at 500 µM (lipoxygenase (LOX)) [%]	Lipoxygenase (LOX) (IC50) (lipoxygenase (LOX))	IC50 (lipoxygenase (LOX)) [µM]	Acetylcholinestrase (AChE) (IC50) ([1]; n = 3, mean ± sem)	IC50 [1] [µM]	inhibition at 500 µM [1] [%]	IC50 [2] [µM]	inhibition at 500 µM [2] [%]
CCOc1cc(Br)c(Br)cc1N(CCc1ccccc1)S(=O)(=O)c1ccccc1 [Compound 6f, N-Phenylethyl-N-(4,5-dibromo-2-ethoxyphenyl)benzenesulfonamide]	77.58 ± 0.66	86.41 ± 0.51	88.73 ± 0.14	53.41 ± 0.51	90.02 ± 0.37							
CCOc1cc(Br)c(Br)cc1N(Cc1ccccc1Cl)S(=O)(=O)c1ccccc1 [Compound 6k]	86.71 ± 0.22	52.41 ± 0.27	93.66 ± 0.82	42.21 ± 0.25	33.23 ± 0.22	NIL						
O=c1cc(-c2ccccc2)oc2cc(O)c(O)c(O)c12 [Baicalein, reference compound]							22.4 ± 1.3					
C=CCN(c1cc(Br)c(Br)cc1OCC)S(=O)(=O)c1ccccc1 [Compound 6c, N-Allyl -N-(4,5-dibromo-2-ethoxyphenyl)benzenesulfonamide]	72.22 ± 0.55	143.91 ± 0.08	80.75 ± 0.68	68.41 ± 0.21	66.26 ± 0.54							
CCOc1cc(Br)c(Br)cc1N(Cc1cccc(Cl)c1)S(=O)(=O)c1ccccc1 [Compound 6i]	82.54 ± 0.36	73.9 ± 0.87	91.78 ± 0.33	57.11 ± 0.46	49.6 ± 0.64	NIL						
CCOc1cc(Br)c(Br)cc1N(CCCc1ccccc1)S(=O)(=O)c1ccccc1 [Compound 6g, N-Phenylpropyl-N-(4,5-dibromo-2-ethoxyphenyl)benzenesulfonamide]	77.18 ± 0.33	158.41 ± 0.11	90.14 ± 0.77	57.5 ± 0.63	75.21 ± 0.11							
CCOc1cc(Br)c(Br)cc1N(C(C)C)S(=O)(=O)c1ccccc1 [Compound 6b, N-Isopropyl -N-(4,5-dibromo-2-ethoxyphenyl)benzenesulfonamide]	79.07 ± 0.38	87.31 ± 0.11	56.57 ± 0.55	> 300	83.54 ± 0.33							
CCOc1cc(Br)c(Br)cc1N(Cc1ccccc1)S(=O)(=O)c1ccccc1 [Compound 6e, N-Benzyl-N-(4,5-dibromo-2-ethoxyphenyl)benzenesulfonamide]	79.27 ± 0.63	88.21 ± 0.17	85.92 ± 0.28	58.71 ± 0.08	31.29 ± 0.18	NIL						
CCOc1cc(Br)c(Br)cc1N(Cc1ccc(F)cc1)S(=O)(=O)c1ccccc1 [Compound 6j]	81.45 ± 0.12	71.31 ± 0.09	87.21 ± 0.31	60.2 ± 0.66	51.23 ± 0.31							
CCOc1cc(Br)c(Br)cc1N(CC)S(=O)(=O)c1ccccc1 [Compound 6a, N-Ethyl-N-(4,5-dibromo-2-ethoxyphenyl)benzenesulfonamide]	28.9 ± 0.31		85.33 ± 0.26	54.9 ± 0.85	81.75 ± 0.71			NIL				
CCOc1cc(Br)c(Br)cc1N(Cc1ccc(Br)cc1)S(=O)(=O)c1ccccc1 [Compound 6h]	74.31 ± 0.11	145.6 ± 0.21	87.91 ± 0.25	60.11 ± 0.34	37.04 ± 0.28	NIL						
CCOc1cc(Br)c(Br)cc1NS(=O)(=O)c1ccccc1 [Compound 4, N-(4,5-dibromo-2-ethoxyphenyl)benzenesulfonamide]	44.15 ± 0.19		80.75 ± 0.17	70.21 ± 0.18	11.6 ± 0.27	NIL		NIL				
CCOc1cc(Br)c(Br)cc1N(CCBr)S(=O)(=O)c1ccccc1 [Compound 6d]					83.95 ± 0.22				131.9 ± 0.16	73.21 ± 0.71	45.31 ± 0.17	87.2 ± 0.96
CCOc1cc(Br)c(Br)cc1N(Cc1ccc(Cl)cc1)S(=O)(=O)c1ccccc1 [Compound 6l]	82.94 ± 0.15	126.61 ± 0.02	66.31 ± 0.11	190.31 ± 0.17	55.5 ± 0.84							
